From ChEMBL document CHEMBL5385851, “Natural quinazolinones: From a treasure house to promising anticancer leads” (Eur J Med Chem, 2023)
≈ marks a conversion by molar mass, not a printed value.

Key:
PC-3 = assay: Cytotoxicity against human PC-3 cells assessed as inhibition of cell growth; assay type: functional, cell-based
AGS = assay: Cytotoxicity against human AGS cells assessed as reduction in cell viability incubated for 48 hrs by MTT assay; assay type: functional, cell-based
SNU1 = assay: Cytotoxicity against human SNU1 cells assessed as inhibition of cell growth measured after 72 hrs by cell titer glo assay; assay type: functional, cell-based; conditions: SNU1, 72 h
KB = assay: Cytotoxicity against human KB cells assessed as cell growth inhibition; assay type: functional, cell-based
HCT-116 = assay: Cytotoxicity against human HCT-116 cells assessed as reduction in cell viability incubated for 24 hrs by MTT assay; assay type: functional, cell-based; conditions: HCT-116, 24 h
P388 [1] = assay: Cytotoxicity against mouse P388 cells assessed as reduction in cell growth; assay type: functional; conditions: read-out: ED50 (the source's name)
K562 = assay: Cytotoxicity against human K562 cells assessed as reduction in cell viability incubated for 24 hrs by MTT assay; assay type: functional, cell-based; conditions: K562, 24 h
SW 1116 = assay: Antiproliferative activity against human […] cells assessed as reduction in cell viability incubated for 24 hrs by MTT assay; assay type: functional, cell-based; conditions: SW 1116, 24 h
P388 [2] = assay: Cytotoxicity against mouse P388 cells assessed as inhibition of cell growth; assay type: functional, cell-based
HepG2 = assay: Antiproliferative activity against human HepG2 cells assessed as reduction in cell viability incubated for 72 hrs by CCK-8 assay; assay type: functional, cell-based; conditions: HepG2, 72 h
[3] = Antiproliferative activity against human U373 cells assessed as inhibition of cell growth measured after 72 hrs by CTG assay; assay type: functional, cell-based; conditions: U373 MG
A549 [4] = assay: Antiproliferative activity against human A549 cells assessed as cell growth inhibition; assay type: functional, cell-based
MCF7 [5] = assay: Antiproliferative activity against human MCF7 cells assessed as reduction in cell viability incubated for 48 hrs by MTT assay; assay type: functional, cell-based; conditions: MCF7, 48 h
SK-MEL-28 = assay: Cytotoxicity against human SK-MEL-28 cells assessed as inhibition of cell growth incubated for 72 hrs by MTT assay; assay type: functional, cell-based; conditions: SK-MEL-28, 72 h
[6] = target: Tryptophan 2,3-dioxygenase (Homo sapiens, UniProt P48775); assay: Inhibition of TDO (unknown origin) expressed in HEK293 cells; assay type: cell-based
Tryptophan 2,3-dioxygenase, sequence (P48775 whole entry): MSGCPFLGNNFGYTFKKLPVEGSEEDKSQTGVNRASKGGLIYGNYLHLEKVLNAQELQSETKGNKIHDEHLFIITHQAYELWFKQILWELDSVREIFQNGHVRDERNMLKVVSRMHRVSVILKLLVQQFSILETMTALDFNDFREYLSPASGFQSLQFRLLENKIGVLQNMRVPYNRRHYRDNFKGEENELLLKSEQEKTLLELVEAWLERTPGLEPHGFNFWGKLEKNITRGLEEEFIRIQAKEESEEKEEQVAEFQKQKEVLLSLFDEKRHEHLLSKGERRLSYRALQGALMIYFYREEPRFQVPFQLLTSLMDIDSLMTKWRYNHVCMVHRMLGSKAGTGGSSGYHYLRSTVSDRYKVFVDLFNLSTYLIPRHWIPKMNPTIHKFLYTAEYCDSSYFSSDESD

[7] = target: Indoleamine 2,3-dioxygenase 1 (Homo sapiens, UniProt P14902); assay: Inhibition of IDO1 in human HeLa cells; assay type: cell-based
Indoleamine 2,3-dioxygenase 1, sequence (P14902 whole entry): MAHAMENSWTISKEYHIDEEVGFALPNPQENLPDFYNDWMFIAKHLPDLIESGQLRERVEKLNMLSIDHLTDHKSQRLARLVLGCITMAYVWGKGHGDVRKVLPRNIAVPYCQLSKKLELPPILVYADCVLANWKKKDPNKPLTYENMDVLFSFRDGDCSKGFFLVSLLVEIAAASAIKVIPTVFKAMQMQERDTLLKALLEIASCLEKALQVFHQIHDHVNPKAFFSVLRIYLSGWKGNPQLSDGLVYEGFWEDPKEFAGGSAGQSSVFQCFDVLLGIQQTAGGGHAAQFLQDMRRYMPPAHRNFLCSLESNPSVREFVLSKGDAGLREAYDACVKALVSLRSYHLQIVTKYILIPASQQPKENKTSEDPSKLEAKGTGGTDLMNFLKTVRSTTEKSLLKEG

A549 [8] = assay: Antiproliferative activity against human A549 cells assessed as reduction in cell viability incubated for 48 hrs by MTT assay; assay type: functional, cell-based; conditions: A549, 48 h
MCF7 [9] = assay: Cytotoxicity against human MCF7 cells assessed as reduction in cell viability by MTS assay; assay type: functional, cell-based
NCI-H460 = assay: Cytotoxicity against human NCI-H460 cells assessed as reduction in cell viability by MTS assay; assay type: functional, cell-based
SF-268 = assay: Cytotoxicity against human SF-268 cells assessed as reduction in cell viability by MTS assay; assay type: functional, cell-based

## COc1ccc2c(=O)n3c(nc2c1)-c1[nH]c2ccccc2c1CC3
PC-3
  IC50: 19.4 µM

## O=C(C[C@H]1NCCC[C@@H]1O)Cn1cnc2ccccc2c1=O
AGS
  IC50: 0.17 mg/L (≈ 0.564 µM)
SNU1
  IC50: 0.05 mg/L (≈ 0.166 µM)

## C=CC(C)(C)[C@@]12C[C@H]3c4nc5ccccc5c(=O)n4[C@H](C)C(=O)N3[C@@H]1N(C(C)=O)c1ccccc12
KB
  IC50: 107 µM

## O=Cc1c(-c2nc3ccccc3c(=O)[nH]2)[nH]c2ccccc12
HCT-116
  IC50: 12.1 µM

## CO[C@@]1(C)NC(=O)[C@@H](C[C@]2(O)c3ccccc3N3C(=O)[C@H](C)N[C@@H]32)n2c1nc1ccccc1c2=O
P388 [1]
  EC50: 13.8 mg/L (≈ 29 µM)

## C[C@H]1C(=O)N2c3ccccc3[C@@]3(O)C[C@@H](n4cnc5ccccc5c4=O)C(=O)N1[C@@H]23
K562
  IC50: 0.035 µM
SW 1116
  IC50: 0.034 µM

## O=C(c1cnc2ccccc2c1)c1nc2ccccc2c(=O)[nH]1
P388 [2]
  IC50: 2.3 mg/L (≈ 7.63 µM)

## COc1ccc2c(=O)n3ccc4c5ccccc5[nH]c4c3nc2c1
PC-3
  IC50: 22.1 µM

## CC1(C)C(=O)N2c3ccccc3[C@@]3(C[C@@H](n4cnc5ccccc5c4=O)C(=O)O3)[C@@H]2N1C=O
HepG2
  IC50: 235 µM
[3]
  IC50: > 100 µM
A549 [4]
  IC50: > 100 µM
MCF7 [5]
  IC50: 91 µM
SK-MEL-28
  IC50: > 100 µM

## CN(C)CCc1ccc2nc3n(c(=O)c2c1)C1C=CC(F)=CC1C3=O (stereo not drawn)
[6]
  IC50: 0.06 µM
[7]
  IC50: 0.02 µM

## C[C@@H]1N[C@H]2N(C1=O)c1ccccc1[C@@]2(O)C[C@@H]1C(=O)N[C@H](C)c2nc3ccccc3c(=O)n21
P388 [1]
  EC50: 16 mg/L (≈ 35.9 µM)

## C=CC(C)(C)[C@@]12C[C@@]3(O)c4nc5ccccc5c(=O)n4[C@H](C)C(=O)N3[C@@H]1N(C(C)=O)c1ccccc12
KB
  IC50: 61.4 µM

## CN1CCN(CCc2ccc3nc4n(c(=O)c3c2)C2C=CC(F)=CC2C4=O)CC1 (stereo not drawn)
[6]
  IC50: 0.09 µM
[7]
  IC50: 0.02 µM

## C[C@H]1C(=O)N2c3ccccc3[C@@]3(C[C@@H](n4cnc5ccccc5c4=O)C(=O)O3)[C@@H]2N1O
A549 [8]
  IC50: 0.54 µM
HepG2
  IC50: 235 µM
[3]
  IC50: > 100 µM
A549 [4]
  IC50: > 100 µM
MCF7 [5]
  IC50: > 100 µM
SK-MEL-28
  IC50: > 100 µM

## O=C1c2nc3ccc(CCN4CCOCC4)cc3c(=O)n2C2C=CC(F)=CC12 (stereo not drawn)
[6]
  IC50: 0.07 µM
[7]
  IC50: 0.02 µM

## CC1(C)C(=O)N2c3ccccc3[C@@]3(C[C@@H](n4cnc5ccccc5c4=O)C(=O)O3)[C@@H]2N1O
HepG2
  IC50: 235 µM
[3]
  IC50: > 100 µM
A549 [4]
  IC50: > 100 µM
MCF7 [5]
  IC50: > 100 µM
SK-MEL-28
  IC50: > 100 µM

## O=C1O[C@]2(C[C@H]1n1cnc3ccccc3c1=O)C(=O)Nc1ccccc12
HepG2
  IC50: 235 µM
[3]
  IC50: > 100 µM
A549 [4]
  IC50: > 100 µM
MCF7 [5]
  IC50: > 100 µM
SK-MEL-28
  IC50: > 100 µM

## CCOC(=O)/C=C/c1ccc2nc3n(c(=O)c2c1)C1C=CC(F)=CC1C3=O (stereo not drawn)
[7]
  IC50: 0.02 µM

## O=C1OCC23Nc4ccccc4C(=O)N2c2ccccc2C13 (stereo not drawn)
MCF7 [9]
  IC50: > 50 µM
NCI-H460
  IC50: > 50 µM
SF-268
  IC50: > 50 µM

## O=C1/C(=c2\c3ccccc3n3c(=O)c4ccccc4nc23)Nc2ccccc21 [CANDIDINE]
MCF7 [9]
  IC50: > 50 µM
NCI-H460
  IC50: > 50 µM
SF-268
  IC50: > 50 µM

## C[C@@H]1N[C@H]2N(C1=O)c1ccccc1[C@@]2(O)C[C@@H]1C(=O)N[C@@H](C)c2nc3ccccc3c(=O)n21 [FUMIQUINAZOLINE A]
P388 [1]
  EC50: 6.1 mg/L (≈ 13.7 µM)

## C[C@@H]1NC(=O)[C@@H](Cc2c[nH]c3ccccc23)n2c1nc1ccccc1c2=O [FUMIQUINAZOLINE F]
P388 [1]
  EC50: 14.6 mg/L (≈ 40.7 µM)

## C[C@H]1NC(=O)[C@@H](Cc2c[nH]c3ccccc23)n2c1nc1ccccc1c2=O [FUMIQUINAZOLINE G]
P388 [1]
  EC50: 17.7 mg/L (≈ 49.4 µM)

## O=C1c2c(O)cccc2-n2c1nc1ccccc1c2=O [PHAITANTHRIN C]
MCF7 [9]
  IC50: > 50 µM
NCI-H460
  IC50: > 50 µM
SF-268
  IC50: > 50 µM

## COC(=O)c1c2ccccc2n2c(=O)c3ccccc3[nH]c12 [PHAITANTHRIN E]
MCF7 [9]
  IC50: > 50 µM
NCI-H460
  IC50: > 50 µM
SF-268
  IC50: > 50 µM

## COC(=O)CC1(O)c2ccccc2-n2c1nc1ccccc1c2=O (stereo not drawn) [PHAITANTHRINS B]
MCF7 [9]
  IC50: > 50 µM
NCI-H460
  IC50: > 50 µM
SF-268
  IC50: > 50 µM
